# Assay results reported in the supplement of paper PMC10307832.
# Compound: CC1(C)CNc2cc(NC(=O)c3cccnc3NCc3ccncc3)ccc21 [Motesanib] + C[C@@H](Oc1cc(-c2cnn(C3CCNCC3)c2)cnc1N)c1c(Cl)ccc(F)c1Cl [Crizotinib] (partner 1 µM)
# Assay: relative viability (nuclei count vs DMSO), 5 days (fraction); higher = more cells survive
# Settings: first compound 1 µM
# In short: (§1)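 After 5 days of treatment, lung cancer cells in 1536-well plates were fixed and stained in a single step (final 0.05% Triton X-100, 1% formaldehyde, 1 ug/ml Hoechst) and their nuclei counted on 4× images. Treatment had been applied by pin tool the day after seeding as one drug alone or as a fixed anchor-drug dose with five library-drug doses (not always all listed) in √10 steps. Relative viability is the nuclei count of treated wells divided by that of vehicle wells, and values are medians of duplicate plates.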
row,Cell Line,relative viability
1,NCI-H1734,0.673
2,NCI-H460,0.902
3,NCI-H2347,0.631
4,SK-LU-1,0.988
5,201T,1.06
6,NCI-H1915,0.947
7,HCC-827,0.93
8,LXF-289,0.867
9,NCI-H23,0.612

# Compound: CC1(C)CNc2cc(NC(=O)c3cccnc3NCc3ccncc3)ccc21 [Motesanib] + CS(=O)(=O)CCNCc1ccc(-c2ccc3ncnc(Nc4ccc(OCc5cccc(F)c5)c(Cl)c4)c3c2)o1 [Lapatinib] (partner 2 µM)
# Assay: as above
# Settings: first compound 0.01 µM
# In short: as §1
row,Cell Line,relative viability
1,NCI-H2126,0.811
2,EMC-BAC-2,0.884
3,NCI-H2085,0.77
4,HCC-366,0.913
5,NCI-H1666,0.882
6,NCI-H596,1.08
7,LK-2,0.784
8,NCI-H2087,1.23
9,SK-MES-1,0.46
10,H3255,0.228
11,COR-L23,0.931
12,COR-L 105,0.368
13,LOU-NH91,0.724
14,HOP-62,0.968
15,HCC-44,0.989
16,LU99A,1.03
17,BEN,0.591

row,Cell Line,relative viability
1,HARA,0.698
2,HCC-78,0.662
3,NCI-H322M,0.553
4,LCLC-97TM1,1.04
5,NCI-H2009,1.08
6,A-427,0.668
7,NCI-H661,0.429
8,NCI-H1734,0.99
9,NCI-H460,0.961
10,NCI-H2347,0.961
11,SK-LU-1,0.844
12,201T,1.01
13,NCI-H1915,0.99
14,HCC-827,0.198
15,LXF-289,0.893
16,NCI-H23,1.14

# Same assay, conditions: first compound 0.03162 µM
row,Cell Line,relative viability
1,NCI-H2126,0.768
2,EMC-BAC-2,0.881
3,NCI-H2085,0.779
4,HCC-366,1.08
5,NCI-H1666,0.709
6,NCI-H596,1.04
7,LK-2,1.19
8,NCI-H2087,0.923
9,SK-MES-1,0.481
10,H3255,0.276
11,COR-L23,0.929
12,COR-L 105,0.408
13,LOU-NH91,0.771
14,NCI-H2405,1.05
15,HOP-62,0.97
16,HCC-44,0.952
17,LU99A,1.2

row,Cell Line,relative viability
1,BEN,0.715
2,HARA,0.668
3,HCC-78,0.785
4,NCI-H322M,0.372
5,LCLC-97TM1,0.96
6,NCI-H2009,0.927
7,A-427,1.02
8,NCI-H661,0.563
9,NCI-H1734,1.14
10,NCI-H460,0.779
11,NCI-H2347,0.776
12,SK-LU-1,1.02
13,201T,1.04
14,NCI-H1915,0.929
15,HCC-827,0.191
16,LXF-289,0.867
17,NCI-H23,0.864

# Same assay, conditions: first compound 0.1 µM
row,Cell Line,relative viability
1,NCI-H2126,0.718
2,EMC-BAC-2,0.847
3,NCI-H2085,0.798
4,HCC-366,1.06
5,NCI-H1666,0.691
6,NCI-H596,1.06
7,LK-2,0.78
8,NCI-H2087,1.23
9,SK-MES-1,0.418
10,H3255,0.224
11,COR-L23,1.01
12,COR-L 105,0.327
13,LOU-NH91,0.752
14,NCI-H2405,1.09
15,HOP-62,0.957
16,HCC-44,1.02
17,LU99A,0.94

row,Cell Line,relative viability
1,BEN,0.723
2,HARA,0.77
3,HCC-78,0.63
4,NCI-H322M,0.696
5,LCLC-97TM1,0.688
6,NCI-H2009,0.962
7,A-427,0.896
8,NCI-H661,0.511
9,NCI-H1734,1.03
10,NCI-H460,0.892
11,NCI-H2347,0.986
12,SK-LU-1,0.894
13,201T,1.08
14,NCI-H1915,0.866
15,HCC-827,0.172
16,LXF-289,0.909

# Same assay, conditions: first compound 0.3162 µM
row,Cell Line,relative viability
1,NCI-H2126,0.789
2,EMC-BAC-2,0.926
3,NCI-H2085,0.772
4,HCC-366,1.13
5,NCI-H1666,0.69
6,NCI-H596,1.16
7,LK-2,1.04
8,NCI-H2087,1.38
9,SK-MES-1,0.465
10,H3255,0.268
11,COR-L23,0.996
12,COR-L 105,0.355
13,LOU-NH91,0.754
14,NCI-H2405,1.16
15,HOP-62,1.33
16,HCC-44,1.04
17,LU99A,1.03

row,Cell Line,relative viability
1,BEN,0.714
2,HARA,0.742
3,HCC-78,0.913
4,NCI-H322M,0.587
5,LCLC-97TM1,1.09
6,NCI-H2009,1.36
7,A-427,1.1
8,NCI-H661,0.386
9,NCI-H1734,1.14
10,NCI-H460,0.974
11,NCI-H2347,1.01
12,SK-LU-1,0.961
13,201T,1.04
14,NCI-H1915,0.939
15,HCC-827,0.224
16,LXF-289,1
17,NCI-H23,1.13

# Same assay, conditions: first compound 1 µM
row,Cell Line,relative viability
1,NCI-H2126,0.728
2,EMC-BAC-2,0.875
3,NCI-H2085,0.779
4,HCC-366,1.06
5,NCI-H1666,0.667
6,NCI-H596,1.18
7,LK-2,0.901
8,NCI-H2087,1.1
9,SK-MES-1,0.454
10,H3255,0.254
11,COR-L23,1.08
12,COR-L 105,0.347
13,LOU-NH91,0.765
14,NCI-H2405,1.12
15,HOP-62,1.09
16,HCC-44,1.03
17,LU99A,0.883
